Test results: ChEMBL document CHEMBL1201862, “PubChem BioAssay data set” (2004)
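How tested: cells in 96-well plates exposed to compound for 48 hours at five concentrations. Here, GI50 denotes the concentration required for 50% inhibition of growth.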 The source made the active and inactive calls. No stated cut-off is given here; in the data, active = GI50 up to about 1.1 µM and inactive = higher.

Assays:
Assay in all cases: NCI anticancer screen, dose series, 48 h
[1] = system: 786-0
[2] = system: A498
[3] = system: ACHN
[4] = system: BT-549
[5] = system: CAKI-1
[6] = system: COLO 205
[7] = system: DU-145
[8] = system: EKVX
[9] = system: HCC 2998
[10] = system: HCT-116
[11] = system: HCT-15
[12] = system: HL-60
[13] = system: HOP-62
[14] = system: HOP-92
[15] = system: HT-29
[16] = system: Hs-578T
[17] = system: IGROV-1
[18] = system: K562
[19] = system: KM12
[20] = system: LOX IMVI
[21] = system: MCF7
[22] = system: MDA-MB-231
[23] = system: MDA-MB-435
[24] = system: MDA-N
[25] = system: MOLT-4
[26] = system: Malme-3M
[27] = system: NCI-H23
[28] = system: NCI-H460
[29] = system: NCI-H522
[30] = system: NCI/ADR-RES
[31] = system: OVCAR-3
[32] = system: OVCAR-4
[33] = system: OVCAR-5
[34] = system: OVCAR-8
[35] = system: PC-3
[36] = system: RPMI-8226
[37] = system: RXF 393
[38] = system: SF-268
[39] = system: SF-295
[40] = system: SK-MEL-28
[41] = system: SK-MEL-2
[42] = system: SK-MEL-5
[43] = system: SK-OV-3
[44] = system: SN12C
[45] = system: SNB-75
[46] = system: SW-620
[47] = system: T47D
[48] = system: TK-10
[49] = system: U-251
[50] = system: UACC-257
[51] = system: UACC-62
[52] = system: A549
[53] = system: CCRF-CEM
[54] = system: M14
[55] = system: NCI-H226
[56] = system: SF-539
[57] = system: SNB-19
[58] = system: UO-31

OC1CCCN(C2(c3cccs3)CCCCC2)C1 (stereo not given)
GI50 [1]: > 100 µM (inactive) | GI50 [2]: > 100 µM (inactive) | GI50 [3]: > 100 µM (inactive) | GI50 [4]: > 100 µM (inactive) | GI50 [5]: > 100 µM (inactive) | GI50 [6]: > 100 µM (inactive) | GI50 [7]: > 100 µM (inactive) | GI50 [8]: > 100 µM (inactive) | GI50 [9]: > 100 µM (inactive) | GI50 [10]: > 100 µM (inactive) | GI50 [11]: > 100 µM | GI50 [12]: 74.6 µM (inactive) | GI50 [13]: > 100 µM (inactive) | GI50 [14]: > 100 µM (inactive) | GI50 [15]: > 100 µM (inactive) | GI50 [16]: > 100 µM (inactive) | GI50 [17]: 97.5 µM (inactive) | GI50 [18]: > 100 µM (inactive) | GI50 [19]: > 100 µM (inactive) | GI50 [20]: > 100 µM (inactive) | GI50 [21]: > 100 µM (inactive) | GI50 [22]: > 100 µM (inactive) | GI50 [23]: > 100 µM (inactive) | GI50 [24]: > 100 µM (inactive) | GI50 [25]: > 100 µM (inactive) | GI50 [26]: > 100 µM (inactive) | GI50 [27]: > 100 µM (inactive) | GI50 [28]: > 100 µM (inactive) | GI50 [29]: > 100 µM (inactive) | GI50 [30]: > 100 µM (inactive) | GI50 [31]: > 100 µM (inactive) | GI50 [32]: > 100 µM (inactive) | GI50 [33]: > 100 µM (inactive) | GI50 [34]: > 100 µM (inactive) | GI50 [35]: > 100 µM (inactive) | GI50 [36]: > 100 µM (inactive) | GI50 [37]: > 100 µM (inactive) | GI50 [38]: > 100 µM (inactive) | GI50 [39]: > 100 µM (inactive) | GI50 [40]: > 100 µM (inactive) | GI50 [41]: > 100 µM (inactive) | GI50 [42]: > 100 µM (inactive) | GI50 [43]: > 100 µM (inactive) | GI50 [44]: > 100 µM (inactive) | GI50 [45]: > 100 µM (inactive) | GI50 [46]: > 100 µM (inactive) | GI50 [47]: > 100 µM (inactive) | GI50 [48]: > 100 µM (inactive) | GI50 [49]: > 100 µM (inactive) | GI50 [50]: > 100 µM (inactive) | GI50 [51]: > 100 µM (inactive)

O=Cc1coc2ccccc2c1=O
GI50 [1]: 18.1 µM (inactive) | GI50 [2]: 44.2 µM (inactive) | GI50 [52]: 25.1 µM (inactive) | GI50 [3]: 19.5 µM (inactive) | GI50 [4]: 15.6 µM (inactive) | GI50 [5]: 19.2 µM (inactive) | GI50 [53]: 18.2 µM (inactive) | GI50 [6]: 16.1 µM (inactive) | GI50 [7]: 40.6 µM (inactive) | GI50 [8]: 22.4 µM (inactive) | GI50 [10]: 16.5 µM (inactive) | GI50 [11]: 14.3 µM | GI50 [12]: 18.6 µM (inactive) | GI50 [13]: 19.1 µM (inactive) | GI50 [15]: 20.7 µM (inactive) | GI50 [16]: 18.2 µM (inactive) | GI50 [17]: 15.7 µM (inactive) | GI50 [18]: 19.3 µM (inactive) | GI50 [19]: 24.2 µM (inactive) | GI50 [20]: 16.9 µM (inactive) | GI50 [54]: 17.9 µM (inactive) | GI50 [21]: 19.2 µM (inactive) | GI50 [22]: 18.5 µM (inactive) | GI50 [23]: 18.5 µM (inactive) | GI50 [24]: 20.5 µM (inactive) | GI50 [25]: 24.9 µM (inactive) | GI50 [26]: 9.68 µM (inactive) | GI50 [55]: 37.7 µM (inactive) | GI50 [27]: 21.9 µM (inactive) | GI50 [28]: 20.9 µM (inactive) | GI50 [29]: 19.1 µM (inactive) | GI50 [30]: 16 µM (inactive) | GI50 [31]: 32.1 µM (inactive) | GI50 [32]: 13.8 µM (inactive) | GI50 [33]: 23.1 µM (inactive) | GI50 [34]: 15 µM (inactive) | GI50 [35]: 18.8 µM (inactive) | GI50 [36]: 15.3 µM (inactive) | GI50 [37]: 18 µM (inactive) | GI50 [38]: 20.8 µM (inactive) | GI50 [39]: 17.9 µM (inactive) | GI50 [56]: 16.1 µM (inactive) | GI50 [42]: 17.8 µM (inactive) | GI50 [43]: 20 µM (inactive) | GI50 [44]: 19.5 µM (inactive) | GI50 [57]: 24.6 µM (inactive) | GI50 [45]: < 0.01 µM (active) | GI50 [46]: 18.5 µM (inactive) | GI50 [47]: 48.1 µM (inactive) | GI50 [48]: 17.7 µM (inactive) | GI50 [49]: 21.3 µM (inactive) | GI50 [50]: 18.7 µM (inactive) | GI50 [51]: 19.9 µM (inactive) | GI50 [58]: 11.9 µM (inactive)
